Laboratory results reported in ChEMBL document CHEMBL3751693, “Synthesis, antimicrobial evaluation and molecular modeling of 5-hydroxyisoquinolinium salt series; the effect of the hydroxyl moiety” (Bioorg Med Chem, 2016).

Assays:
[1] = test system: Staphylococcus epidermidis; assay: Antimicrobial activity against clinical isolate Staphylococcus epidermidis H 696608 after 48 hrs; format: functional; conditions: H 696608, 48 h
Klebsiella pneumoniae [2] = assay: Antimicrobial activity against clinical isolate ESBL-Klebsiella pneumoniae J 1436808 after 24 hrs; format: functional; conditions: J 1436808, 24 h
Enterococcus sp. [3] = assay: Antimicrobial activity against clinical isolate Enterococcus sp. J 1436508 after 24 hrs; format: functional; conditions: J 1436508, 24 h
[4] = Cytotoxicity against CHOK1 cells after 24 hrs by MTT assay; format: cell-based; conditions: Cricetulus griseus, CHO-K1, 24 h
Candida tropicalis [5] = assay: Antimicrobial activity against Candida tropicalis 156 after 24 hrs by spectrophotometry; format: functional; conditions: Candida tropicalis, 156, 24 h
Candida albicans [6] = assay: Antimicrobial activity against Candida albicans ATCC 44859 after 48 hrs by spectrophotometry; format: functional; conditions: ATCC 44859, 48 h
Staphylococcus aureus [7] = assay: Antimicrobial activity against clinical isolate Staphylococcus aureus CCM 451608 after 24 hrs; format: functional; conditions: CCM 451608, 24 h
Pseudomonas aeruginosa [8] = assay: Antimicrobial activity against clinical isolate Pseudomonas aeruginosa CCM 1961 after 72 hrs; format: functional; conditions: CCM 1961, 72 h
Nakaseomyces glabratus [9] = assay: Antimicrobial activity against Candida glabrata 20/I after 24 hrs by spectrophotometry; format: functional
Escherichia coli [10] = assay: Antimicrobial activity against clinical isolate Escherichia coli CCM 4517 after 24 hrs; format: functional; conditions: CCM 4517, 24 h
Pichia kudriavzevii [11] = assay: Antimicrobial activity against Candida krusei E28 after 24 hrs by spectrophotometry; format: functional; conditions: E28, 24 h
Klebsiella pneumoniae [12] = assay: Antimicrobial activity against clinical isolate Klebsiella pneumoniae D 1175008 after 24 hrs; format: functional; conditions: D 1175008, 24 h
[13] = test system: Trichophyton mentagrophytes; assay: Antimicrobial activity against Trichophyton mentagrophytes 445 after 120 hrs by spectrophotometry; format: functional; conditions: Trichophyton mentagrophytes, 445, 120 h
Pichia kudriavzevii [14] = assay: Antimicrobial activity against Candida krusei E28 after 48 hrs by spectrophotometry; format: functional; conditions: E28, 48 h
Nakaseomyces glabratus [15] = assay: Antimicrobial activity against Candida glabrata 20/I after 48 hrs by spectrophotometry; format: functional
Candida albicans [16] = assay: Antimicrobial activity against Candida albicans ATCC 44859 after 24 hrs by spectrophotometry; format: functional; conditions: ATCC 44859, 24 h
[17] = test system: Staphylococcus epidermidis; assay: Antimicrobial activity against clinical isolate Staphylococcus epidermidis H 696608 after 24 hrs; format: functional; conditions: H 696608, 24 h
Staphylococcus aureus [18] = assay: Antimicrobial activity against clinical isolate methicillin-resistant Staphylococcus aureus H 599608 after 24 hrs; format: functional; conditions: H 599608, 24 h
Staphylococcus aureus [19] = assay: Antimicrobial activity against clinical isolate methicillin-resistant Staphylococcus aureus H 599608 after 48 hrs; format: functional; conditions: H 599608, 48 h
Lichtheimia corymbifera [20] = assay: Antimicrobial activity against Absidia corymbifera 272 after 48 hrs by spectrophotometry; format: functional; conditions: Lichtheimia corymbifera, 272, 48 h
Aspergillus fumigatus [21] = assay: Antimicrobial activity against Aspergillus fumigatus 231 after 24 hrs by spectrophotometry; format: functional; conditions: Aspergillus fumigatus, 231, 24 h
Candida tropicalis [22] = assay: Antimicrobial activity against Candida tropicalis 156 after 48 hrs by spectrophotometry; format: functional; conditions: Candida tropicalis, 156, 48 h
Aspergillus fumigatus [23] = assay: Antimicrobial activity against Aspergillus fumigatus 231 after 48 hrs by spectrophotometry; format: functional; conditions: Aspergillus fumigatus, 231, 48 h
Klebsiella pneumoniae [24] = assay: Antimicrobial activity against clinical isolate ESBL-Klebsiella pneumoniae J 1436808 after 48 hrs; format: functional; conditions: J 1436808, 48 h
Lichtheimia corymbifera [25] = assay: Antimicrobial activity against Absidia corymbifera 272 after 24 hrs by spectrophotometry; format: functional; conditions: Lichtheimia corymbifera, 272, 24 h
Staphylococcus aureus [26] = assay: Antimicrobial activity against clinical isolate Staphylococcus aureus CCM 451608 after 48 hrs; format: functional; conditions: CCM 451608, 48 h
[27] = test system: Trichophyton mentagrophytes; assay: Antimicrobial activity against Trichophyton mentagrophytes 445 after 72 hrs by spectrophotometry; format: functional; conditions: Trichophyton mentagrophytes, 445, 72 h
Klebsiella pneumoniae [28] = assay: Antimicrobial activity against clinical isolate Klebsiella pneumoniae D 1175008 after 48 hrs; format: functional; conditions: D 1175008, 48 h
Trichosporon asahii [29] = assay: Antimicrobial activity against Trichosporon asahii 1188 after 48 hrs by spectrophotometry; format: functional; conditions: Trichosporon asahii, 1188, 48 h
Escherichia coli [30] = assay: Antimicrobial activity against clinical isolate Escherichia coli CCM 4517 after 48 hrs; format: functional; conditions: CCM 4517, 48 h
Enterococcus sp. [31] = assay: Antimicrobial activity against clinical isolate Enterococcus sp. J 1436508 after 48 hrs; format: functional; conditions: J 1436508, 48 h
Trichosporon asahii [32] = assay: Antimicrobial activity against Trichosporon asahii 1188 after 24 hrs by spectrophotometry; format: functional; conditions: Trichosporon asahii, 1188, 24 h
Pseudomonas aeruginosa [33] = assay: Antimicrobial activity against clinical isolate Pseudomonas aeruginosa CCM 1961 after 120 hrs; format: functional; conditions: CCM 1961, 120 h

CCCCCCCCCC[n+]1ccc2ccccc2c1
2 µM: MIC [1] | MFC (Pichia kudriavzevii [14]) | MIC [17]
41 µM: IC50 [4]
7.8 µM: MIC (Nakaseomyces glabratus [9]) | MIC (Nakaseomyces glabratus [15]) | MFC (Candida tropicalis [22])
3.9 µM: MIC (Candida tropicalis [5])
0.5 µM: MIC (Pichia kudriavzevii [11]) | MIC (Pichia kudriavzevii [14])
500 µM: MIC (Aspergillus fumigatus [21]) | MIC (Aspergillus fumigatus [23]) | MBC (Klebsiella pneumoniae [24])
16 µM: MBC [1] | MIC (Candida albicans [6]) | MIC (Staphylococcus aureus [7]) | MIC (Candida albicans [16]) | MIC (Staphylococcus aureus [26])
125 µM: MFC [13] | MBC (Staphylococcus aureus [19]) | MBC (Klebsiella pneumoniae [28]) | MBC (Escherichia coli [30]) | MBC (Enterococcus sp. [31])
> 500 µM: MIC (Pseudomonas aeruginosa [8]) | MFC (Lichtheimia corymbifera [20]) | MIC (Lichtheimia corymbifera [20]) | MFC (Aspergillus fumigatus [23]) | MIC (Lichtheimia corymbifera [25]) | MBC (Pseudomonas aeruginosa [33]) | MIC (Pseudomonas aeruginosa [33])
3.8 µM: MIC (Candida tropicalis [22])
31 µM: MFC (Nakaseomyces glabratus [15]) | MIC (Staphylococcus aureus [18]) | MIC (Staphylococcus aureus [19]) | MBC (Staphylococcus aureus [26])
63 µM: MIC (Enterococcus sp. [3]) | MFC (Candida albicans [6]) | MIC (Escherichia coli [10]) | MIC (Klebsiella pneumoniae [12]) | MIC [13] | MIC [27] | MIC (Klebsiella pneumoniae [28]) | MIC (Escherichia coli [30]) | MIC (Enterococcus sp. [31])
250 µM: MIC (Klebsiella pneumoniae [2]) | MIC (Klebsiella pneumoniae [24]) | MFC (Trichosporon asahii [29]) | MIC (Trichosporon asahii [29]) | MIC (Trichosporon asahii [32])

CCCCCCCCCCCC[n+]1ccc2c(O)cccc2c1
3.9 µM: MBC [1] | MIC [1] | MIC (Nakaseomyces glabratus [9]) | MIC (Nakaseomyces glabratus [15]) | MIC [17] | MIC (Staphylococcus aureus [18]) | MBC (Staphylococcus aureus [19]) | MIC (Staphylococcus aureus [19])
36 µM: IC50 [4]
31 µM: MIC (Candida tropicalis [5]) | MIC [13] | MIC (Aspergillus fumigatus [21]) | MIC (Candida tropicalis [22]) | MIC (Aspergillus fumigatus [23]) | MIC [27] | MFC (Trichosporon asahii [29]) | MIC (Trichosporon asahii [29]) | MIC (Trichosporon asahii [32])
2 µM: MBC (Staphylococcus aureus [26])
250 µM: MIC (Escherichia coli [10]) | MFC (Lichtheimia corymbifera [20]) | MFC (Aspergillus fumigatus [23]) | MBC (Escherichia coli [30]) | MIC (Escherichia coli [30])
125 µM: MIC (Lichtheimia corymbifera [20]) | MIC (Lichtheimia corymbifera [25])
1 µM: MIC (Staphylococcus aureus [7]) | MIC (Staphylococcus aureus [26])
63 µM: MIC (Klebsiella pneumoniae [2]) | MIC (Enterococcus sp. [3]) | MFC (Candida albicans [6]) | MIC (Candida albicans [6]) | MIC (Pseudomonas aeruginosa [8]) | MIC (Klebsiella pneumoniae [12]) | MFC [13] | MIC (Candida albicans [16]) | MFC (Candida tropicalis [22]) | MBC (Klebsiella pneumoniae [24]) | MIC (Klebsiella pneumoniae [24]) | MBC (Klebsiella pneumoniae [28]) | MIC (Klebsiella pneumoniae [28]) | MBC (Enterococcus sp. [31]) | MIC (Enterococcus sp. [31]) | MBC (Pseudomonas aeruginosa [33]) | MIC (Pseudomonas aeruginosa [33])
7.8 µM: MIC (Pichia kudriavzevii [11]) | MFC (Pichia kudriavzevii [14]) | MIC (Pichia kudriavzevii [14]) | MFC (Nakaseomyces glabratus [15])

CCCCCCCCCCCCCCCC[n+]1ccc2c(O)cccc2c1
3.9 µM: MIC (Nakaseomyces glabratus [9]) | MFC (Nakaseomyces glabratus [15]) | MIC (Nakaseomyces glabratus [15])
> 500 µM: MIC (Klebsiella pneumoniae [2]) | MIC (Pseudomonas aeruginosa [8]) | MIC (Escherichia coli [10]) | MIC (Klebsiella pneumoniae [12]) | MFC (Lichtheimia corymbifera [20]) | MIC (Lichtheimia corymbifera [20]) | MIC (Aspergillus fumigatus [21]) | MFC (Aspergillus fumigatus [23]) | MIC (Aspergillus fumigatus [23]) | MBC (Klebsiella pneumoniae [24]) | MIC (Lichtheimia corymbifera [25]) | MBC (Klebsiella pneumoniae [28]) | MIC (Klebsiella pneumoniae [28]) | MBC (Escherichia coli [30]) | MIC (Escherichia coli [30]) | MBC (Pseudomonas aeruginosa [33]) | MIC (Pseudomonas aeruginosa [33])
63 µM: MBC [1] | MIC [1] | MIC (Enterococcus sp. [3]) | MIC [17] | MIC (Trichosporon asahii [29]) | MBC (Enterococcus sp. [31]) | MIC (Enterococcus sp. [31]) | MIC (Trichosporon asahii [32])
125 µM: MFC (Candida albicans [6]) | MFC [13] | MFC (Trichosporon asahii [29])
16 µM: IC50 [4] | MIC (Candida albicans [6]) | MIC [13] | MIC (Candida albicans [16]) | MIC [27]
500 µM: MIC (Klebsiella pneumoniae [24])
0.5 µM: MIC (Staphylococcus aureus [7]) | MIC (Staphylococcus aureus [18]) | MBC (Staphylococcus aureus [19]) | MIC (Staphylococcus aureus [19]) | MBC (Staphylococcus aureus [26]) | MIC (Staphylococcus aureus [26])
7.8 µM: MIC (Candida tropicalis [5]) | MIC (Pichia kudriavzevii [11]) | MFC (Pichia kudriavzevii [14]) | MIC (Pichia kudriavzevii [14]) | MFC (Candida tropicalis [22]) | MIC (Candida tropicalis [22])
